Test results taken from patent EP2818471A1, “Nitrogen bicyclic compounds as inhibitors for Scyl1 and Grk5” (Max-Planck-Gesellschaft zur Förderung der Wissenschaften …, priority 2013, dated 2014).

Test system: beta-TC6 cells
Experiment: Insulin HTRF assay, relative activity Ar normalized to sunitinib
Format: cell-based
Details: Mus musculus, normalized to positive control sunitinib (5 µM = 100%), Table 10
Procedure, shortened: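 beta-TC6 cells (15k/well) were seeded for 24 or 48 h, washed and exposed to test compound or sunitinib (5 µM f.c.) in induction buffer with 0.5% DMSO for 2, 3 or 4 h at 37°C. Secreted insulin in the supernatant was measured by two-antibody HTRF after 120 min at RT. Ar = (V − 0% control)/(100% control − 0% control) × 100.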

Row | Compound | Emax [%]
1 | CCCNc1ccc2ncc(-c3cccc(/C=C/C(=O)O)c3)n2n1 [compound 21, (E)-3-[3-[6-(propylamino)imidazo[1,2-b]pyridazin-3-yl]phenyl]prop-2-enoic acid] | 10 to 20
2 | COc1ccccc1-c1ccc2ncc(-c3ccc(F)c(Cl)c3)n2n1 [compound 113, 3-(3-chloro-4-fluoro-phenyl)-6-(2-methoxyphenyl)imidazo[1,2-b]pyridazine] | 20 to 50
3 | COc1cccc(-c2ccc3nnc(-c4cscn4)n3c2)c1 [compound 234, 4-[6-(3-methoxyphenyl)-[1,2,4]triazolo[4,3-a]pyridin-3-yl]thiazole] | 50 to 100
4 | CN(C)c1ccc(-c2cnc3cnc(-c4ccc(C(=O)N5CCOCC5)cc4)cn23)cc1 [compound 291, [4-[3-(4-dimethylaminophenyl)imidazo[1,2-a]pyrazin-6-yl]phenyl]-morpholino-methanone] | 20 to 50
5 | COc1cccc(-c2ccc3ncc(-c4cccc(Cl)c4)n3n2)c1 [compound 126, 3-(3-chlorophenyl)-6-(3-methoxyphenyl)imidazo[1,2-b]pyridazine] | 10 to 20
6 | CN(C)c1ccc(-c2cnc3cnc(-c4ccc(NCCN5CCOCC5)nc4)cn23)cc1 [compound 282, 5-[3-(4-dimethylaminophenyl)imidazo[1,2-a]pyrazin-6-yl]-N-(2-morpholinoethyl)pyridin-2-amine] | 50 to 100
7 | COc1ccc(CNc2ccc3ncc(-c4ccc5[nH]ccc5c4)n3n2)cc1 [compound 37, 3-(1H-indol-5-yl)-N-[(4-methoxyphenyl)methyl]imidazo[1,2-b]pyridazin-6-amine] | 20 to 50
8 | CN(C)C(=O)c1ccc(-c2ccc3nnc(-c4cccc(C(F)(F)F)c4)n3c2)cc1 [compound 213, N,N-dimethyl-4-[3-[3-(trifluoromethyl)phenyl]-[1,2,4]triazolo[4,3-a]pyridin-6-yl]benzamide] | 20 to 50
9 | CC(C(=O)Nc1cnc2cnc(-c3ccc4c(c3)OCO4)cn12)c1ccccc1 (centres unmarked) [compound 270, N-[6-(1,3-benzodioxol-5-yl)imidazo[1,2-a]pyrazin-3-yl]-2-phenyl-propanamide] | 20 to 50
10 | CN(C)c1ccc(-c2cnc3cnc(-c4cccc(NS(C)(=O)=O)c4)cn23)cc1 [compound 295, N-[3-[3-(4-dimethylaminophenyl)imidazo[1,2-a]pyrazin-6-yl]phenyl]methanesulfonamide] | 20 to 50
11 | CS(=O)(=O)Nc1cccc(-c2cn3c(-c4cccs4)cnc3cn2)c1 [compound 425, N-[3-[3-(2-thienyl)imidazo[1,2-a]pyrazin-6-yl]phenyl]methanesulfonamide] | 20 to 50
12 | COc1ccccc1CC(=O)Nc1cnc2cnc(-c3cccc(Cl)c3Cl)cn12 [compound 250, N-[6-(2,3-dichlorophenyl)imidazo[1,2-a]pyrazin-3-yl]-2-(2-methoxyphenyl)acetamide] | 20 to 50
13 | Nc1ccc(-c2ccc3nnc(-c4cccc(C(F)(F)F)c4)n3c2)cn1 [compound 214, 5-[3-[3-(trifluoromethyl)phenyl]-[1,2,4]triazolo[4,3-a]pyridin-6-yl]pyridin-2-amine] | 20 to 50
14 | FC(F)(F)Oc1cccc(-c2nnc3ccc(C#Cc4ccccc4)cn23)c1 [compound 196, 6-(2-phenylethynyl)-3-[3-(trifluoromethoxy)phenyl]-[1,2,4]triazolo[4,3-a]pyridine] | 20 to 50
15 | Clc1cccc(-c2nnc3ccc(-c4ccc5c(c4)OCO5)cn23)c1 [compound 198, 6-(1,3-benzodioxol-5-yl)-3-(3-chlorophenyl)-[1,2,4]triazolo[4,3-a]pyridine] | 50 to 100
16 | CN(C)c1ccc(-c2cnc3cnc(-c4ccccc4Cl)cn23)cc1 [compound 294, 4-[6-(2-chlorophenyl)imidazo[1,2-a]pyrazin-3-yl]-N,N-dimethyl-aniline] | 20 to 50
17 | COc1cc(-c2cnc3cnc(-c4ccc(N5CCN(C)CC5)nc4)cn23)ccc1O [compound 393, 2-methoxy-4-[6-[6-(4-methylpiperazin-1-yl)-3-pyridyl]imidazo[1,2-a]pyrazin-3-yl]phenol] | 20 to 50
